Data: ChEMBL document CHEMBL1138690, “Carbonic anhydrase inhibitors. Inhibition of the newly isolated murine isozyme XIII with anions” (Bioorg Med Chem Lett, 2004)

Assays:
Carbonic anhydrase 13 = Carbonic anhydrase 13 (Mus musculus, UniProt Q9D6N1)
Description: Inhibitory activity against mouse carbonic anhydrase XIII expressed in Escherichia coli TOP 10

Carbonic anhydrase V = Carbonic anhydrase V (Homo sapiens, UniProt Q9Y2D0+P35218)
Description: Inhibitory activity against human carbonic anhydrase V expressed in Escherichia coli

Carbonic anhydrase 1 = Carbonic anhydrase 1 (Homo sapiens, UniProt P00915)
Sequence of Carbonic anhydrase 1 (P00915 whole entry): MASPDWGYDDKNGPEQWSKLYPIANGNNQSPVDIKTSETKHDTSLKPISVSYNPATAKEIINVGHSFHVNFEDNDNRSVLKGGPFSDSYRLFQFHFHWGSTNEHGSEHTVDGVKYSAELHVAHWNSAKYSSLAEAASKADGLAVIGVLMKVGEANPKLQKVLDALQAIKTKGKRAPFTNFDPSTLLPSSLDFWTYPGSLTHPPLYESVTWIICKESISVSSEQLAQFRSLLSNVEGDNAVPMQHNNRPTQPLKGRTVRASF
Description: Inhibitory activity against human carbonic anhydrase I expressed in Escherichia coli

Sequence of Carbonic anhydrase 13 (Q9D6N1 whole entry): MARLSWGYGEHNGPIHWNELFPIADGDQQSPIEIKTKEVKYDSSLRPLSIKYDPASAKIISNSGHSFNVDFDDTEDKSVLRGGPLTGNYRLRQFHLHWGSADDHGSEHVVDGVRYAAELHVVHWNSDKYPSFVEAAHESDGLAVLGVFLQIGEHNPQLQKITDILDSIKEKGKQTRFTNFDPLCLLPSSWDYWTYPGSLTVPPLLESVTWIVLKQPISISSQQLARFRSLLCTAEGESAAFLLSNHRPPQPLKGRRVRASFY

Q: With `Br` [BROMIDE] as the compound, how does the Ki (Carbonic anhydrase 13) read?
A: The Ki was 45 mM.

Q: Which Ki (Carbonic anhydrase 13) does the source give for `N#CO` [CYANATE] here?
A: The Ki was 0.00025 mM.

Q: `F` [FLUORIDE ION] was tested. Which Ki (Carbonic anhydrase 13) did it give?
A: Its Ki is 3 mM.

Q: For `Cl` [HYDROCHLORIC ACID], which Ki (Carbonic anhydrase V) is on record?
A: The Ki was 156 mM.

Q: What about the Ki (Carbonic anhydrase 13) of the same compound?
A: The Ki was 138 mM.

Q: With `S` [HYDROGEN SULFIDE] as the compound, how does the Ki (Carbonic anhydrase V) read?
A: Its Ki is 0.02 mM.

Q: And the Ki (Carbonic anhydrase 13)?
A: Its Ki is 5.2 mM.

Q: How did the Ki (Carbonic anhydrase V) turn out when `I` [IODIDE] was run?
A: The Ki was 25 mM.

Q: What about the Ki (Carbonic anhydrase 13) of the same compound?
A: The Ki was 5.4 mM.

Q: With `O=[N+]([O-])O` [NITRIC ACID] as the compound, how does the Ki (Carbonic anhydrase V) read?
A: Its Ki is 16 mM.

Q: What about the Ki (Carbonic anhydrase 13) of the same compound?
A: The Ki was 36 mM.

Q: How did the Ki (Carbonic anhydrase 13) turn out when `O=NO` [NITROUS ACID] was run?
A: Its Ki is 12.6 mM.

Q: `OB(O)c1ccccc1` [PHENYLBORONIC ACID] was tested. Which Ki (Carbonic anhydrase V) did it give?
A: The Ki was 4.51 mM.

Q: And the Ki (Carbonic anhydrase 13)?
A: Its Ki is 2.85 mM.

Q: How did the Ki (Carbonic anhydrase V) turn out when `NS(=O)(=O)O` [SULFAMATE] was run?
A: Its Ki is 0.12 mM.

Q: And the Ki (Carbonic anhydrase 13)?
A: The Ki was 21.5 mM.

Q: Which Ki (Carbonic anhydrase 13) does the source give for `NS(N)(=O)=O` [SULFAMIDE] here?
A: Its Ki is 0.14 mM.

Q: Which results are given for `O=S(=O)(O)O` [SULFURIC ACID]?
A: Ki (Carbonic anhydrase V): 680 mM; Ki (Carbonic anhydrase 13): 267 mM

Q: Which results are given for `O=S(O)O` [SULFUROUS ACID]?
A: Ki (Carbonic anhydrase 1): 18 mM; Ki (Carbonic anhydrase 13): 75.5 mM

Q: With `N#CS` [THIOCYANIC ACID] as the compound, how does the Ki (Carbonic anhydrase 13) read?
A: Its Ki is 0.74 mM.
